Here are results for 7 molecules from patent publication US20260206828A1, “CONSTITUENT MEMBER PERFUMED BY FLAVOR RAW MATERIAL AND SMOKING ARTICLE” (Japan Tobacco Inc., priority 2022, published 2026).

The nature of data set [1]: Retention index (RI) measurement by GC/MS. It is filed as physicochemical. Particulars: HP-5 MS column (95% dimethylpolysiloxane/5% phenyl-methylpolysiloxane), 1000 ppm in ethanol, n-alkane mixture C6-C35, linear method. The procedure: Menthol (L-Menthol, manufactured by Takasago International Corporation) and cooling sensation agents (the abovementioned COOLACT® 370, COOLACT® 5, COOLACT® 10, COOLACT® 20, Symcool® WS-5, and Symcool® WS-23) were respectively diluted by adding ethanol to obtain diluted solutions of menthol and each cooling sensation agent diluted to 1000 ppm in ethanol.
Gas chromatography with a mass spectrometer (GC/MS) was then performed on the abovementioned diluted solutions thus obtained.
• Apparatus: 7890B/5977B GC/MSD, manufactured by Agilent Technologies GC conditions • Column: HP-5 MS (manufactured by Agilent Technologies) • Inner diameter 0.25 mm×length 30 m, film thickness 0.25 μm • Injection volume: 1 μL • Injection mode: Split (10:1) • Injection port temperature: 270° C. • Septum purge flow: 5 ml/minute • Carrier gas: Helium (He) • Column flow rate: 1 mL/minute (constant flow mode) • Oven temperature: From 40° C. (3 minutes) to 280° C. (20 minutes) at a rate of 4° C./minute • Transfer line temperature: 280° C. MS conditions • Solvent wait time: 4 minutes • Ionization method: Electron impact ionization (EI), 70 eV • Ion source temperature: 230° C. • Quadrupole temperature: 150° C. • Measurement mode: Scan • MS scan range: m/z 26-450 • Threshold: 50 • Sampling rate: 2
The chromatogram retention index (RI) obtained by the abovementioned GC/MS analysis was calculated by the following method.
The RI of menthol or respective cooling agent was calculated by a linear method on the basis of an n-alkane mixture ranging from n-hexane (C6, RI: 600) to n-pentatriacontane (C35, RI: 3500) Note that the n-alkane mixture used in calculating the RI is not limited thereto.

The nature of data set [2]: Storage resistance by GC/MS: residual rate in tobacco filler in an open system. The conditions noted are these: 5,000 ppm in tobacco filler, open system on a tray, 5 days in an incubator, internal standard quinoline. It is filed as physicochemical. The method, then:
Solutions were prepared by dissolving menthol and other cooling agents (the abovementioned COOLACT® 370 and Symcool® WS-23) respectively through addition of ethanol thereto. Each solution thus obtained was added to the tobacco filler portion of a combustion smoking article, using a microsyringe (MS-50, Ito Microsyringe, manufactured by Ito Seisakusho), such that that the content of menthol or other cooling sensation agent was 5,000 ppm relative to the weight of the tobacco, and the samples immediately after addition were considered to be “pre-storage cigarette samples.” Each solution thus obtained was also added to the tobacco filler portion of a heat-not-burn smoking article (a tobacco stick comprising a tobacco filler portion and a filter portion), using the abovementioned microsyringe, such that that the menthol or other cooling sensation agent content was 5,000 ppm relative to the weight of the tobacco therein, and the samples immediately after addition were considered to be “pre-storage tobacco stick samples.” The cigarettes and tobacco sticks injected with menthol or other cooling sensation agent were then placed on a tray (DT-1 disposable tray, manufactured by As One), stored for 5 days in an incubator (SCI-13 compact incubator, manufactured by Shibata), and were respectively considered to be “post-storage cigarette samples” and “post-storage tobacco stick samples.”
In addition, 1.0 g of quinoline was precisely weighed out as an internal standard, and diluted to 1 L with methanol to serve as an extraction solvent.
The pre-storage cigarette samples, pre-storage tobacco stick samples, post-storage cigarette samples, and post-storage tobacco stick samples obtained as described above then underwent the following treatment. • The tobacco filler portion was removed from each sample and placed in a screw tube, and 10 mL of the extraction solvent, prepared as described above, was added. The screw tubes were then shaken at 200 rpm for 20 minutes, and, after having been left to stand overnight, shaken again at 200 rpm for 20 minutes to obtain tobacco filler portion extract samples. The extract samples obtained from the pre-storage cigarette samples, pre-storage tobacco stick samples, post-storage cigarette samples, and post-storage tobacco stick samples were respectively considered to be “pre-storage cigarette extract samples,” “pre-storage tobacco stick extract samples,” “post-storage cigarette extract samples,” and “post-storage tobacco stick extract samples.”
The extract samples thus obtained were each collected using a syringe (25 mL, SS-02SZ, manufactured by Terumo Corporation) and filtered through a filter (0.45 μm, Prem Syringe Filter, RC, manufactured by Agilent Technologies), and the liquids obtained after filtration were respectively considered to be extract samples for pre-storage cigarette analysis, extract samples for pre-storage tobacco stick analysis, extract samples for post-storage cigarette analysis, and extract samples for post-storage tobacco stick analysis.
The target ions and qualifier ions shown below were selected for the respective cooling sensation agents. A target ion and qualifier ion were also selected for quinoline, used as the internal standard. • Menthol (target ion: m/z=95.1, qualifier ion: m/z=71.0, 81.1) • […] (target ion: m/z=114.0, qualifier ion: m/z=57.0, 102.0) • COOLACT® 370 (target ion: m/z=211.2, qualifier ion: m/z=97.0, 168.1) • Quinoline (target ion: m/z=129.1, qualifier ion: m/z=76.0, 102.0)
• Column: HP-5 MS (manufactured by Agilent Technologies), inner diameter 0.25 mm×length 30 m, film thickness 0.25 μm • Injection volume: 1 μL • Injection mode: Split (10:1) • Injection port temperature: 270° C. • Septum purge flow rate: 5 mL/minute • Carrier gas: Helium (He) • Column flow rate: 1 ml/minute (constant flow mode) • Oven: 40° C. (for 3 minutes) to 280° C. (for 10 minutes) at 10° C./minute […]

Data set [3] is described as follows: Storage resistance by GC/MS: migration from tobacco filler to filter in a closed system. Type of data set: physicochemical. The conditions noted are these: tobacco sticks, 2,500, 5,000 and 10,000 ppm. The procedure: A solution was prepared by dissolving a methyl menthol derivative (the abovementioned COOLACT® 370) through addition of methanol thereto. The solution thus obtained was added using the microsyringe described above to the tobacco filler of portion of an unheated smoking article (a tobacco stick comprising a tobacco filler portion and a filter portion), using the abovementioned microsyringe, such that the methyl menthol derivative content was 2,500 ppm, 5,000 ppm, or 10,000 ppm relative to the weight of tobacco therein, and the samples immediately after addition were considered to be “pre-storage tobacco stick samples.” Each tobacco stick injected with the methyl menthol derivative was placed in a Lami-Zip bag (AL-5, manufactured by Seisannipponsha), and left in an incubator (an SCI-13 compact incubator, manufactured by Shibata) for 5 days to provide a “post-storage tobacco stick sample.”
The pre-storage and post-storage tobacco stick samples obtained in the abovementioned manner underwent the following processing. • The tobacco filler portion and filter portion were removed from each sample and placed in a separate screw tube, and 10 mL of methanol were added. […]

Data set [4] in a line: Preliminary study of cooling sensation intensity. It is filed as in vivo. The conditions noted are these: similar contents. The source says:
Whereas the content of the methyl menthol derivative or cooling agent other than a methyl menthol derivative as a cooling ingredient was 2000 ppm in the abovementioned Examples 1-3 and in Comparative Examples 2 and 4, the content of the cooling ingredient menthol in the abovementioned Comparative Examples 1 and 3 was set to 5,000 ppm, thus adjusting the cooling sensation intensity as much as possible to facilitate comparison, in order to assess cooling sensation intensity in the present sensory evaluation.

Where [5] appears, read: cigarettes (combustion smoking articles).
Where [6] appears, read: tobacco sticks (heat-not-burn smoking articles).

Structures are written as SMILES.

Consider `CNC(=O)C(C)(C(C)C)C(C)C` [Symcool® WS-23, 2-isopropyl-N,2,3-trimethylbutyramide], for which the “Retention index (RI)” value in data set [1] was 1287. The Residual rate in data set [2] (setting [5]) is 33.5%; in data set [2] (setting [6]), 50.2%.

For `CC(C)[C@@H]1CC[C@@H](C)C[C@H]1OCCO` [COOLACT® 5, 2-L-menthoxyethanol], the “Retention index (RI)” value in data set [1] was 1414.

For `CC(C)C1CCC(C)(C)CC1C(=O)NCC(O)c1ccccc1` (stereo not shown) [COOLACT® 370, N-(2-hydroxy-2-phenylethyl)-2-isopropyl-5,5-dimethylcyclohexane-1-carboxamide], in data set [1], the “Retention index (RI)” value came to 2477. In addition, the Residual rate in data set [2] (setting [5]) is listed as 98.5%; in data set [2] (setting [6]), 100%. Moreover, in data set [3] (closed system (Lami-Zip bag), 5 days in an incubator, FIGS. 10-12), the “Migration from tobacco filler portion to filter portion, post-storage” value is recorded as “had not migrated from the tobacco filler portion to the filter portion”. In addition, the “Migration from tobacco filler portion to filter portion, pre-storage” value in data set [3] (immediately after addition, GC/MS total ion chromatograms, FIGS. 7-9) is “did not migrate from the tobacco filler portion to the filter portion”.

As to `CCOC(=O)CNC(=O)C1CC(C)CCC1C(C)C` (stereo not shown) [Symcool® WS-5, ethyl-2-(p-menthane-3-carboxamido)acetate], the “Retention index (RI)” value in data set [1] was 1942.

As for `CC(O)CC(=O)O[C@@H]1C[C@H](C)CC[C@H]1C(C)C` (stereo partly drawn) [COOLACT® 20, L-menthyl-3-hydroxybutyrate], the “Retention index (RI)” value in data set [1] was determined as 1611.

In the case of `CC1CCC(C(C)C)C(OCC(O)CO)C1` [COOLACT® 10, 3-L-menthoxypropane-1,2-diol], the “Retention index (RI)” value in data set [1] came to 1674.

In the case of `CC1CCC(C(C)C)C(O)C1` (stereo not shown) [Menthol], the “Retention index (RI)” value in data set [1] is 1173. Further, the Residual rate is listed as 15.9% in data set [2] (setting [5]) and 10.4% in data set [2] (setting [6]). Also, the “Cooling sensation intensity compared with methyl menthol derivatives and other cooling agents” value in data set [4] is reported as “weaker cooling sensation intensity”.
